# Measured values published in US7094869B2, “Low molecular weight peptidomimetic growth hormone secretagogues” (Genentech, Inc., priority 1994, dated 2006).
# Entries after “also recorded” stand apart in the source; their conditions may differ. Like-named read-outs stand apart in the source and are kept apart here. Non-standard residues stand in square brackets, D forms with d. Residues, ends and D or L forms follow the SMILES beside them. No end group written: not given here. d2Nal = N[C@H](Cc1ccc2ccccc2c1)C(=O)O; Inp = O=C(O)C1CCNCC1
# Assays:
# rat pituitary cells [1] = target: T1, rat pituitary cells (Rattus norvegicus, UniProt O08725)
# Summary of the method: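 Primary rat anterior pituitary cells, cultured three days in DME low glucose/10% FBS, were washed, pre-incubated twice for 15 min, then challenged 15 min with test compounds (DMSO ≤0.1%) at 37 °C. Released GH was measured by two-site ELISA; EC50 came from 4-parameter fits, mean of three to four independent determinations.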
# [2] = Combination GHRP and IGF-1 treatment of normal rats (7 days); format: in vivo, rat; settings: for body weight gain (in words): 7 days, twice daily sc injections, normal adult female rats, GHRH 300, GHRPs 50, L-692,585 150 μg/dose
# Procedure: The rats were weighed on the day of surgery and randomized into 12 groups of 5/group using a grouping program.
# The GH secretagogues were given by sc. injection twice daily, each dose of 100 μl. […] Recombinant human IGF-1 (rhIGF-1) at 2.5 mg/ml in acetate buffer was loaded into osmotic minipumps (Alza, Palo Alto, model 2ML1, pump rate 10.16 μl/hr for 7 days, fill volume 2086 μl). Other pumps were filled with acetate buffer. […] The delivered dose of rhIGF-1 was therefore 610 μg/day.
# The next day the osmotic pumps were inserted into rats. […] All rats not receiving rhIGF-1 containing pumps were implanted with pumps delivering the acetate buffer excipient. […] The treatment groups were;
# The rats were sacrificed using carbon dioxide, bled from the heart and organs taken. Serum chemistries were measured by standard automated procedures.
# growth hormone secretion = test: GHRP induced growth hormone secretion, intravenous administration (Rat IV); format: in vivo; settings: serum GH 10 min after injection; for RAT IV ED50: Table IV, iv injection; for Rat IV ED50: Table II, iv tail vein injection, anesthetized weanling female rats
# Summary of the method: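 Female Sprague Dawley rats (24-30 days, 50-90 g) under intraperitoneal pentobarbitone received graded intravenous tail-vein peptide doses in pH 5.0 sodium acetate/mannitol buffer 20 min post-anaesthesia. Blood by cardiac puncture 10 min after dosing; serum GH measured by rat GH ELISA in duplicate.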
# rat pituitary cells [3] = target: T1, rat pituitary cells; test: Rat “pit” cell challenges: combinations with GHRP-6/GHRH, desensitization, somatostatin suppression, GHRP antagonist; format: cell-based
# Procedure: Dispersion: Adult female Sprague-Dawley (160-180 g., Charles River) rats were group-caged in a 12:12 light:dark cycle with food and water available ad libitum. Pituitaries from ten rats were removed, the posterior pituitary discarded and the anterior pituitary placed in Hanks' Balanced Salt Solution (HBSS: without calcium chloride, w/o magnesium chloride, w/o magnesium sulfate; Gibco) containing 20 mM HEPES (Gibco) and 100 U/ml penicillin streptomycin (PS: JRH Biosciences). Under sterile conditions, pituitaries were rinsed twice then minced into small fragments with a razor blade. Fragments were resuspended in 5 ml of HBSS/HEPES containing 20 mg collagenase (Serva 17449) and 200 ml of 1 mg/ml DNase (Sigma) for a 40 min. incubation in a 37° C. gyrotory water bath shaker (New Brunswick Scientific Model G76; setting 10). After the incubation, fragments were triturated to yield small clumps and single cells. The cells were centrifuged 1000× g for 5 min, resuspended, counted and plated at a final cell concentration of 100,000 cells/ml. Incubation media was DME low glucose media w/NaHCO3 (Gibco) containing 20 mM hepes, 100 U/ml PS and 10% FBS (Hyclone A-111-L). Cells were plated at 0.5 ml per well in 48 well plates (Falcon) and incubated at 37° C. in 5% C02 for three days. […] The highest concentration of DMSO in media was 0.1%. Stock solutions (1 mM) of rat GHRH, somatostatin (Sigma) and GHRP antagonist HwkWfK were made fresh in media and diluted appropriately. The media used in all challenges and washing steps was DME low glucose with 20 mM Hepes, 100 U/ml PS, 10% FBS. Media was warmed to 37° C. and gassed by placing it into the incubator prior to challenge. On day three, the media was discarded and fresh media (approximately 1 ml) added for the first of three washes. After the last wash, the plate was placed back in the incubator for a 15 min pre-incubation. Then cells were washed 2× (with warmed and gassed media) and fresh 0.5 ml media were added for the second 15 min. pre-incubation. After the second pre-incubation cells were washed 2× as above and 0.5 ml of control and test solutions were added for a final 15 min incubation. After this incubation, the media were removed for subsequent GH ELISA. GH ELISA: A two-site ELISA was used to determine rat GH concentration in the media. Briefly, goat anti-rat GH antibody (lot#19164-20) was used to coat Nunc immunoplates overnight. After blocking and washing, standard (rat GH reference preparation: Parlow) and challenge media is diluted 1:20 prior to GH assay were added for a 1 hr room temperature incubation. STATISTICS: The mean for each group was determined and analyzed by one-way analysis of variance with a post-hoc Student-Newman-Keuls. Significance is defined as P<0.05. The EC50 was calculated using a 4-parameter curve-fit program (Kaleidagraph). Three to four independent EC50s were used to derive the mean and SEM.
# [4] = oral; cited from earlier work
# rat pituitary cell = settings: cited from earlier work
# ACTH = ACTH release from pituitary cells (RIA); format: cell-based, rat
# Procedure: Dispersion: Adult female Sprague-Dawley (160-180 g., Charles River) rats were group-caged in a 12:12 light:dark cycle with food and water available ad libitum. Pituitaries from ten rats were removed, the posterior pituitary discarded and the anterior pituitary placed in Hanks' Balanced Salt Solution (HBSS: without calcium chloride, w/o magnesium chloride, w/o magnesium sulfate; Gibco) containing 20 mM HEPES (Gibco) and 100 U/ml penicillin streptomycin (PS: JRH Biosciences). Under sterile conditions, pituitaries were rinsed twice then minced into small fragments with a razor blade. Fragments were resuspended in 5 ml of HBSS/HEPES containing 20 mg collagenase (Serva 17449) and […] of 1 mg/ml DNase (Sigma) for a 40 min. incubation in a 37° C. gyrotory water bath shaker (New Brunswick Scientific Model G76; setting 10). After the incubation, fragments were triturated to yield small clumps and single cells. The cells were centrifuged 1000× g for 5 min, resuspended, counted and plated at a final cell concentration of 100,000 cells/ml. Incubation media was DME low glucose media w/NaHCO3 (Gibco) containing 20 mM hepes, 100 U/ml PS and 10% FBS (Hyclone A-111-L). Cells were plated at 0.5 ml per well in 48 well plates (Falcon) and incubated at 37° C. in 5% C02 for three days. For challenges to determine release of other pituitary hormones cells were plated at 200,000 cells per ml with 2 ml per well of a Swell plate (Corning). Challenge: A (inip)bbFK-NH2 stock (or other GHRP) concentration of 1 mM was made in DMSO and diluted with warmed media approximately 30 min prior to use. The highest concentration of DMSO in media was 0.1%. […] STATISTICS: The mean for each group was determined and analyzed by one-way analysis of variance with a post-hoc Student-Newman-Keuls. […] The EC50 was calculated using a 4-parameter curve-fit program (Kaleidagraph). […] RIA of pituitary hormones: LH, FSH, TSH, and Prolactin were determined with commercially available kits from Amersham, and ACTH levels were determined by a RIA kit from ICN. […]
# [5] = GHRP induced dose dependent weight gain in rats (sc minipump infusion, 14 days); format: in vivo, rat
# Procedure: Rat GHRH (1-43) was dissolved in the same buffer at 25 g/l.
# The next day these osmotic pumps were inserted into rats.
# Serum chemistries were measured by standard automated procedures.
# [6] = read-out: PIT Cell EC50, Table IV, formula III compounds, GH release, 15 min incubation
# [7] = read-out: “Pit” Cell EC50, Table II, prior art compounds, GH release, 15 min incubation
# [8] = high dose (inip) b b F K-NH2 100 μg/day, GHRH 600 μg/day, 14 d infusion
# T1 sequence (O08725 whole entry): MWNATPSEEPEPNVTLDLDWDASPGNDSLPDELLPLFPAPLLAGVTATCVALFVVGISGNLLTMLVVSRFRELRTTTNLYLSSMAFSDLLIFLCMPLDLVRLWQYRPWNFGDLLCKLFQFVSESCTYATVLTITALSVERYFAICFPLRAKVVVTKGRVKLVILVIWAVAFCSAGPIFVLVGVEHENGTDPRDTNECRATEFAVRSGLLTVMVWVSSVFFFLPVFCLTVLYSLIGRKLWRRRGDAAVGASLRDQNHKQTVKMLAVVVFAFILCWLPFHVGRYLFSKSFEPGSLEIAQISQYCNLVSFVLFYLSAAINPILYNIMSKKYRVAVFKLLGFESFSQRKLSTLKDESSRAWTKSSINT
molecule,measurement,setting,value
"NC(=O)[C@H](Cc1ccccc1)NC(=O)[C@@H](Cc1ccc2ccccc2c1)NC(=O)[C@@H](Cc1ccc2ccccc2c1)NC(=O)C1CCNCC1 [(inip) b b F amide, (inip)-DβNal-DβNal-Phe-amide] (H-[Inp][d2Nal][d2Nal]F-NH2)",EC50,rat pituitary cells [1]; [6],0.28 nM
same,body weight gain (in words),[2],significant body weight gain
same,weight gain,"[2]; in 7 days, 50 μg/dose twice daily sc",36 ± 8 g
same,RAT IV ED50,growth hormone secretion,1.7 µg
"CN(C(=O)[C@@H](Cc1ccc2ccccc2c1)NC(=O)C1CCNCC1)[C@H](Cc1ccc2ccccc2c1)C(=O)NCCCCN [(inip) b nmb bam, (inip)-DβNal-(N-Me-DβNal)-[N-(4-aminobutyl)] amide]",EC50,rat pituitary cells [1]; [6],0.3 nM
same,body weight gain (in words),[2],significant body weight gain
same,RAT IV ED50,growth hormone secretion,1.67 µg
"C[C@H](NC(=O)[C@@H](Cc1c[nH]c2ccccc12)NC(=O)[C@@H](N)Cc1c[nH]cn1)C(=O)N[C@@H](Cc1c[nH]c2ccccc12)C(=O)N[C@H](Cc1ccccc1)C(=O)N[C@@H](CCCCN)C(N)=O [GHRP 6, His-D Trp-Ala-Trp-D Phe-Lys-NH2, reference compound] (H-H[dW]AW[dF]K-NH2)",GH response compared with control,rat pituitary cells [3]; 100 nM,significantly greater than control
same,increase in GH levels over control,rat pituitary cells [3]; 100 nM,3 fold
same,GH release in combination with GHRH,rat pituitary cells [3]; GHRP 100 nM plus GHRH 10 or 100 nM,show synergy with 10 nM GHRH; also recorded: synergistic; also recorded: showed synergy with GHRH
same,EC50,"rat pituitary cells [1]; read-out: mean EC50, mean ± SE of independent EC50s",6.2 ± 1.5 nM
same,body weight gain (in words),[2],significant body weight gain
same,absorbed orally,[4],~0.3%
same,Rat IV ED50,growth hormone secretion,1.0 µg
"CC(C)(N)CC(=O)N[C@@H]1CCc2ccccc2N(Cc2ccc(-c3ccccc3-c3nnn[nH]3)cc2)C1=O [L-692,429, reference compound]",EC50,rat pituitary cells [1]; [7],26.2 nM
same,fold less potent than GHRP-6,rat pituitary cell,about 6 fold
same,Rat IV ED50,growth hormone secretion,100 µg
"C[C@@H](O)CNC(C)(C)CC(=O)N[C@@H]1CCc2ccccc2N(Cc2ccc(-c3ccccc3-c3nnn[nH]3)cc2)C1=O [L-692,585, reference compound]",EC50,rat pituitary cells [1]; [7],10.6 nM
same,body weight gain (in words),[2],no significant weight gain
same,potency in the rat pituitary cell assay,rat pituitary cell,slightly greater than GHRP-6
same,Rat IV ED50,growth hormone secretion,10 µg
"CRF: corticotrophin releasing factor (SEEPPISLDLTFHLLREVLEMARAEQLAQQAHSNRKLMEII; ends and bridges not checked; UniProt P06850 154-194, looked up) [reference compound]",rise in ACTH levels,ACTH,3 fold
"GHRH: Rat GHRH (1-43), growth hormone releasing hormone, positive control (HADAIFTSSYRRILGQLYARKLLHEIMNRQQGERNQEQRSRFN; Somatoliberin; UniProt P09916 31-73, looked up) [reference compound]",epiphyseal plate width,[5]; 14 d infusion,no statistically significant increase
same,pituitary and kidney weight,[5]; 14 d infusion,not affected
same,liver weight (in words),"[5]; GHRH 600 μg/day, 14 d infusion",significantly increased
same,heart weight compared to excipient,"[5]; high dose 100 μg/day, GHRH 600 μg/day",increased
same,spleen weight,[5]; [8],624 ± 23 mg
same,thymus weight,[5]; [8],575 ± 39 mg
same,body weight gain compared to excipient,"[5]; sc minipump 14 days, (inip) b b F K-NH2 4, 20, 100 μg/d, GHRH 600 μg/d, 90 day old female rats",significant body weight and organ weight gain
same,GH response compared with control,rat pituitary cells [3]; 100 nM,mild GH response
same,body weight gain (in words),[2],significant body weight gain
